Test results from patent publication US20110039926A1 (priority 2008, published 2011).

Experiments:
[1] = tested on: patients suffering from psychiatric disorders (among them MDD); conditions: several trials, patients with psychiatric disorders (among them MDD); cited from earlier work
[2] = tested on: patients with Major Depressive Disorders (MDD); assay: multi-center, randomised, double-blinded, placebo-controlled 10 weeks study of F2695 in Major Depressive Disorders; format: in vivo, human
Excerpt: This was a multi-center, randomised, double-blinded, placebo-controlled 10 weeks study, assessing the efficacy and safety of F2695 flexible safety adapted dose in the treatment of patients with Major Depressive Disorders (MDD).
This study enrolled 563 patients who met the DSM-IV criteria for major depression with depression severity at the inclusion time assessed by HAM-D 17 score >22.
Patients were randomised to receive placebo or a flexible safety adapted dose by increasing progressively the administered doses using slow release capsules containing 25 or 50 mg of active drug (281 patients for placebo and 282 patients for F2695).
Placebo as well as F2695 were administered once a day as slow release capsules.
Slow release capsules were constituted of a plurality of minigranules each containing an active minisphere comprising a sucrose core containing F2695 as well as PVP as a binding agent; each minigranule being coated with a film of ethyl cellulose as described in EP 939 626. Placebo was constituted of the same slow release capsules of minigranules containing minispheres constituted only of a sucrose core.
The doses were administered in a dose escalation regimen during 10 days for initial titration. […]
Safety of F2695 was assessed by analysing: • frequency and intensity of adverse events as classified in the ICH guidelines (any adverse change from the subject's baseline condition, i.e. any subjective signs and symptoms, or change in a concomitant disease present at the selection visit, either considered or not related to the treatment) • suicidal risk evaluated by the MINI version 0.5 (modified Mini International Neuropsychiatric Interview) Efficiency of F2695 was assessed by: • MADRS Total score: change from baseline MMRM analysis (Full analysis data set) • MADRS Total score: change from baseline MMRM analysis (Per Protocol data set) • Responders and remitted patients compared to placebo group at Day 70 (end of the treatment period) Results from Safety

[3] = compared with other psychotropic products such as clomipramine and milnacipran; cited from earlier work
norepinephrine uptake = target: T1, norepinephrine uptake (Rattus norvegicus, UniProt Q63380); conditions: homogenate of rat hypothalamus; versus racemic milnacipran hydrochloride; cited from earlier work
T1 construct: from tissue; host or cells: rat hypothalamus homogenate
T1 sequence (Q63380 1-617): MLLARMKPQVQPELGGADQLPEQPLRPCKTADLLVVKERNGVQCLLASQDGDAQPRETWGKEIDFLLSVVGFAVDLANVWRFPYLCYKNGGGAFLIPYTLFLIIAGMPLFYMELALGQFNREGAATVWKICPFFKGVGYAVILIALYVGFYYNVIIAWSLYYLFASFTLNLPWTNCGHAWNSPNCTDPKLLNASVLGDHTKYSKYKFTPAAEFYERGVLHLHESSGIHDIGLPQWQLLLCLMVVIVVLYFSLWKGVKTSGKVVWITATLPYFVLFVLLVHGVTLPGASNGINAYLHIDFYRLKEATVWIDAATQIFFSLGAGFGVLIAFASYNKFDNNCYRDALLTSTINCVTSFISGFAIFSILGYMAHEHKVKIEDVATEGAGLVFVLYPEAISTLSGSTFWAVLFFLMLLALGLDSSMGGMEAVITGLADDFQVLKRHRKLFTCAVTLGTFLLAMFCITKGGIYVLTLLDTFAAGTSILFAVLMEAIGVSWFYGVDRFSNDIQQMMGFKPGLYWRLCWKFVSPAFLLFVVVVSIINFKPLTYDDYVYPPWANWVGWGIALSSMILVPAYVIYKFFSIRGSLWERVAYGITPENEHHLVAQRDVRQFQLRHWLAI

Q: With `CN(C)CCC[C@@]1(c2ccc(F)cc2)OCc2cc(C#N)ccc21` [escitalopram] as the molecule, how does the “odds ratio (OR) versus placebo, suicidal behaviour and ideation” value [1] read?
A: The value was 1.57.

Q: For `CCN(CC)C(=O)[C@@]1(c2ccccc2)C[C@H]1CN.Cl` [F2695, Z-(1S,2R)-2-(aminomethyl)-N,N-diethyl-1-phenyl cyclopropane carboxamide hydrochloride], which “patients presenting significant Suicidal Risk (%)” value ([2]; During the 6-weeks treatment and follow-up, versus 2.1% upon placebo) is on record?
A: Its value is 0.4%.

Q: And the “patients presenting significant Suicidal Risk” value ([2]; During the 6-weeks treatment and follow-up, versus 6 patients upon placebo)?
A: Its value is 1 patient.

Q: And the “Suicidal Risk in patients suffering from depression” value ([2]; conclusion from the odds ratio obtained in a small population)?
A: Its value is “significantly reduced”.

Q: And the “odds ratio (OR) of significant Suicidal Risk, F2695 versus placebo” value ([2]; logits method, confidence interval [0.0196, 1.3686])?
A: The value was 0.1637.

Q: What about the “Insufficient response (withdrawn patients)” value ([2]; n = 282, number of patients) of the same molecule?
A: Its value is 16.

Q: What about the “Serious Adverse Event/Non Serious Adverse Event (withdrawn patients)” value ([2]; n = 282, number of patients) of the same molecule?
A: The value was 26.

Q: And the “Therapeutic Failure (withdrawn patients)” value ([2]; n = 282, number of patients)?
A: The value was 22.

Q: And the “Worsening of MDD (withdrawn patients)” value ([2]; n = 282, number of patients)?
A: Its value is 11.

Q: And the “Significant Suicidal Risk (withdrawn patients)” value ([2]; n = 282, number of patients, suicidal risk evaluated by the MINI)?
A: The value was 1.

Q: And the “Insufficient response (withdrawn patients, %)” value ([2]; n = 282, percent of group)?
A: The value was 5.7%.

Q: What about the “Serious Adverse Event/Non Serious Adverse Event (withdrawn patients, %)” value ([2]; n = 282, percent of group) of the same molecule?
A: Its value is 9.2%.

Q: And the “Therapeutic Failure (withdrawn patients, %)” value ([2]; n = 282, percent of group)?
A: The value was 7.8%.

Q: What about the “Worsening of MDD (withdrawn patients, %)” value ([2]; n = 282, percent of group) of the same molecule?
A: The value was 3.9%.

Q: What about the “Significant Suicidal Risk (withdrawn patients, %)” value ([2]; n = 282, percent of group, suicidal risk evaluated by the MINI) of the same molecule?
A: The value was 0.4%.

Q: And the safety coefficient [3]?
A: The safety coefficient was “significantly better”.

Q: What about the toxico-genomic profile [3] of the same molecule?
A: Its toxico-genomic profile is “superior”.

Q: What about the “efficiency in norepinephrine uptake relative to the racemate” value (norepinephrine uptake) of the same molecule?
A: The value was “two”.
